{
  "source": "patent US12642781B2",
  "about": "“Adenomyosis associated infertility and hdac inhibitors” (NADEZHDA REPRODUCTIVE SCIENCE OOD, priority 2020, dated 2026)",
  "key": {"[1]": {"system": "adenomyosis associated infertility", "experiment": "Pregnancy outcome of IVF after the treatment regimen", "type": "in vivo, women", "experimental": "Sodium valproate 500 mg prolonged-release tablets were used. […] There were tested 37 women with adenomyosis and a history of infertility and/or abortions. […] One month after End of Treatment, a new IVF cycle is ready to be started, and pregnancies are followed up to full term birth. […] Pregnancy rate was measured and is described below in Table 6: […]"}, "[2]": {"experiment": "Safety and tolerability of the treatment regimen (safety lab blood tests, adverse events)", "type": "in vivo, women", "experimental": "(§1) Intralesional application must start with the lesions located closest to the cavum uteri, in the so-called junctional zone, because these have the strongest influence on fertility. The procedure is performed under short-term intravenous anesthesia to ensure patient comfort and immobility during application; patients report no pain after anesthesia wear off.\nThe safety lab panel included liver function tests (AST, ALT, LDH), as well as complete blood count."}, "adenomyosis lesions": {"system": "adenomyosis lesions", "experiment": "Clinical treatment of women with adenomyosis: lesion assessment by 2D/3D ultrasound, MRI and colour Doppler", "type": "in vivo", "experimental": "A 100 mg/ml solution of sodium valproate for injection or infusion was prepared.\nThis solution is drawn in 5 ml Luer lock syringe and administrated in the lesion(s) through special needle. We have used—OPU needle 18G, with echo tip and length at least 15 cm. The solution was administered in the ultrasound-guided manner in all visible lesions. The access was through the vagina.\nas §1\nThe first oral dose must be taken between 9 h and 16 h after the end of intralesion application in order to achieve a steady state in patient plasma.\nSodium valproate 500 mg prolonged-release tablets were used.\nTo eliminate operator bias, all TVUS scans of the same patient at baseline and after start of treatment were performed by the same specialist on the same ultrasound machine.\nThere were tested 37 women with adenomyosis and a history of infertility and/or abortions."}, "[3]": {"details": "after the first two months of oral VPA following intralesional VPA administration"}},
  "data": [
    {"smiles": "CCCC(CCC)C(=O)O", "note": "[VPA, valproic acid]", "values": [
      {"measurement": "Observed Prop. (Binomial Test, Pregnancy CODE 1.00)", "setting": "[1]; Group 2, N 13 of 37, Test Prop. .8, Exact Sig. (1-tailed) .023", "value": ".4"},
      {"measurement": "pregnancy terminations, or uterine obstetric complications during C-Section", "setting": "[1]; in vivo", "value": "No pregnancy terminations, or uterine obstetric complications during C-Section"},
      {"measurement": "pregnancy rate", "setting": "[1]; new IVF cycle one month after End of Treatment, results up to date", "value": 85, "unit": "%"},
      {"measurement": "healthy full-term babies", "setting": "[1]; results up to date", "value": 10},
      {"measurement": "patients who reported dizziness and stopped oral VPA intake", "setting": "[2]; 1000 mg VPA daily oral", "value": 2},
      {"measurement": "pain after intralesional application", "setting": "[2]; after anesthesia wear off", "value": "no pain"},
      {"measurement": "safety lab results (AST, ALT, LDH, complete blood count)", "setting": "[2]; before start and every 30 days till end of treatment", "value": "in normal range"},
      {"measurement": "response of lesions to treatment", "setting": "adenomyosis lesions; 37 women with adenomyosis and a history of infertility and/or abortions", "value": "Some of the lesions disappeared completely and some of them were significantly reduced in size"},
      {"measurement": "central vascularity of lesions (Colour Doppler)", "setting": "adenomyosis lesions; [3]", "value": "absent"},
      {"measurement": "reduction in size of lesion dimensions (ultrasound)", "setting": "adenomyosis lesions; [3]", "value": "up to 2 fold"},
      {"measurement": "progression of adenomyosis", "setting": "adenomyosis lesions; monthly follow-up for three months after end of treatment", "value": "no progression of adenomyosis was observed"}
    ]}
  ]
}
